# Measured values as given in patent US20020137929A1, “1 - (3-heterocyclylphenyl) isothiourea, -isourea, -guanidine and -amidine herbicidal agents” (Intellectual Property Department, BASF Aktiengesellschaft, priority 1998, published 2002).
# Columns and labels:
# GALAP (Galium) = assay: Preemergence herbicidal evaluation; type: in vivo, Galium aparine; conditions: rated 4-5 weeks after treatment, rating scale 0-9
# In short: (§1)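 Preemergence soil application of compound, sprayed in aqueous acetone at rates equivalent to about 0.0156 to 0.500 kg per hectare onto freshly sown cups. Plant response was judged by eye on a 0-9 scale four to five weeks later.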
# [1] = test system: GLXMAW (Soybean, Williams); assay: Preemergence herbicidal evaluation; type: in vivo, Glycine max, (L.) Merr. cv Williams; conditions: rated 4-5 weeks after treatment, rating scale 0-9
# In short: as §1
# SETVI (Foxtail, Green) = assay: Preemergence herbicidal evaluation; type: in vivo, Setaria viridis; conditions: rated 4-5 weeks after treatment, rating scale 0-9
# In short: as §1
# ABUTH (Velvetleaf) = assay: Preemergence herbicidal evaluation; type: in vivo, Abutilon theophrasti; conditions: rated 4-5 weeks after treatment, rating scale 0-9
# In short: as §1
# ZEAMX (Corn, Field) = assay: Postemergence herbicidal evaluation; type: in vivo, Zea mays; conditions: postemergence
# In short: (§2)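 Visual 0-9 injury score (stand, vigor, malformation, size, chlorosis, appearance vs untreated) taken four to five weeks post-spray, averaged across repeat tests. Test plants about two weeks old; foliar spray of acetone/water (1:1) with 0.5% surfactant delivering ~0.0156-0.500 kg active/ha.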
# CASOB (Sicklepod) = assay: Preemergence herbicidal evaluation; type: in vivo, Cassia obtusifolia; conditions: rated 4-5 weeks after treatment, rating scale 0-9
# In short: as §1
# [2] = test system: SAGPY (Arrowhead (Pygmaea)); assay: Preemergence weed control under flooded paddy conditions; type: in vivo, Sagittaria pygmaea; conditions: rated 3-4 weeks after treatment
# In short: (§3)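 Visual injury scored 0-9 against control three to four weeks post-treatment, greenhouse-grown. Application: acetone/water (50/50) solutions dosed directly into flood water (1.5-3 cm over silt loam, planted top 0.5 cm), roughly 0.0313 to 0.500 kg/ha active ingredient.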
# CYPSE (Flatsedge) = assay: as above; type: in vivo, Cyperus serotinus; conditions: rated 3-4 weeks after treatment
# In short: as §3
# [3] = test system: IPOHE (Morningglory, Ivyleaf); assay: Postemergence herbicidal evaluation; type: in vivo, Ipomoea hederacea; conditions: postemergence
# In short: as §2
# [4] = test system: GLXMAW (Soybean, Williams); assay: Postemergence herbicidal evaluation; type: in vivo, Glycine max, (L.) Merr. cv Williams; conditions: postemergence
# In short: as §2
# ECHCG (Barnyardgrass) = assay: Preemergence herbicidal evaluation; type: in vivo, Echinochloa crus-galli; conditions: rated 4-5 weeks after treatment, rating scale 0-9
# In short: as §1
# AMBEL (Ragweed, Common) [5] = assay: Postemergence herbicidal evaluation; type: in vivo, Ambrosia artemisifolia; conditions: postemergence
# In short: as §2
# AMBEL (Ragweed, Common) [6] = assay: Preemergence herbicidal evaluation; type: in vivo, Ambrosia artemisifolia; conditions: rated 4-5 weeks after treatment, rating scale 0-9
# In short: as §1
compound,measurement,setting,value
"Cn1c(C(F)(F)F)cc(=O)n(-c2cc(N=C3SCC(=O)N3Cc3ccc(C(F)(F)F)cc3)c(Cl)cc2F)c1=O [Compound 141, 3-{4-Chloro-2-fluoro-5-{{3-[p-(trifluoromethyl)benzyl]-4-oxo-2-thiazolidinylidene}-amino}phenyl}-1-methyl-6-(trifluoromethyl)-2,4 (1H, 3H)-pyrimidinedione]",Preemergence herbicidal rating GALAP,GALAP (Galium); rate 0.0156 kg/ha,0.0
same,Preemergence herbicidal rating GALAP,GALAP (Galium); rate 0.0313 kg/ha,0.0
same,Preemergence herbicidal rating GALAP,GALAP (Galium); rate 0.0625 kg/ha,0.0
same,Preemergence herbicidal rating GALAP,GALAP (Galium); rate 0.1250 kg/ha,0.0
same,Preemergence herbicidal rating GALAP,GALAP (Galium); rate 0.2500 kg/ha,0.0
same,Preemergence herbicidal rating GLXMAW,[1]; rate 0.0156 kg/ha,0.0
same,Preemergence herbicidal rating GLXMAW,[1]; rate 0.0313 kg/ha,0.0
same,Preemergence herbicidal rating GLXMAW,[1]; rate 0.0625 kg/ha,0.0
same,Preemergence herbicidal rating GLXMAW,[1]; rate 0.1250 kg/ha,0.0
same,Preemergence herbicidal rating GLXMAW,[1]; rate 0.2500 kg/ha,3.0
same,Preemergence herbicidal rating SETVI,"SETVI (Foxtail, Green); rate 0.0156 kg/ha",0.0
same,Preemergence herbicidal rating SETVI,"SETVI (Foxtail, Green); rate 0.0313 kg/ha",0.0
same,Preemergence herbicidal rating SETVI,"SETVI (Foxtail, Green); rate 0.0625 kg/ha",0.0
same,Preemergence herbicidal rating SETVI,"SETVI (Foxtail, Green); rate 0.1250 kg/ha",0.0
same,Preemergence herbicidal rating SETVI,"SETVI (Foxtail, Green); rate 0.2500 kg/ha",4.0
same,Preemergence herbicidal rating ABUTH,ABUTH (Velvetleaf); rate 0.0156 kg/ha,0.0
same,Preemergence herbicidal rating ABUTH,ABUTH (Velvetleaf); rate 0.0313 kg/ha,0.0
same,Preemergence herbicidal rating ABUTH,ABUTH (Velvetleaf); rate 0.0625 kg/ha,0.0
same,Preemergence herbicidal rating ABUTH,ABUTH (Velvetleaf); rate 0.1250 kg/ha,4.0
same,Preemergence herbicidal rating ABUTH,ABUTH (Velvetleaf); rate 0.2500 kg/ha,9.0
same,Herbicidal rating ZEAMX,"ZEAMX (Corn, Field); rate 0.0156 kg/ha",4.0
same,Herbicidal rating ZEAMX,"ZEAMX (Corn, Field); rate 0.0313 kg/ha",4.5
same,Herbicidal rating ZEAMX,"ZEAMX (Corn, Field); rate 0.0625 kg/ha",5.0
same,Preemergence herbicidal rating CASOB,CASOB (Sicklepod); rate 0.0156 kg/ha,0.0
same,Preemergence herbicidal rating CASOB,CASOB (Sicklepod); rate 0.0313 kg/ha,0.0
same,Preemergence herbicidal rating CASOB,CASOB (Sicklepod); rate 0.0625 kg/ha,0.0
same,Preemergence herbicidal rating CASOB,CASOB (Sicklepod); rate 0.1250 kg/ha,0.0
same,Preemergence herbicidal rating CASOB,CASOB (Sicklepod); rate 0.2500 kg/ha,3.0
same,"herbicidal effect rating, SAGPY",[2]; 0.0313 kg/ha,4.0
same,"herbicidal effect rating, SAGPY",[2]; 0.0625 kg/ha,5.0
same,"herbicidal effect rating, SAGPY",[2]; 0.1250 kg/ha,5.0
same,"herbicidal effect rating, SAGPY",[2]; 0.2500 kg/ha,6.0
same,"herbicidal effect rating, CYPSE",CYPSE (Flatsedge); 0.0313 kg/ha,0.0
same,"herbicidal effect rating, CYPSE",CYPSE (Flatsedge); 0.0625 kg/ha,0.0
same,"herbicidal effect rating, CYPSE",CYPSE (Flatsedge); 0.1250 kg/ha,0.0
same,"herbicidal effect rating, CYPSE",CYPSE (Flatsedge); 0.2500 kg/ha,0.0
same,Herbicidal rating IPOHE,[3]; rate 0.0156 kg/ha,9.0
same,Herbicidal rating IPOHE,[3]; rate 0.0313 kg/ha,9.0
same,Herbicidal rating IPOHE,[3]; rate 0.0625 kg/ha,9.0
same,Herbicidal rating GLXMAW,[4]; rate 0.0156 kg/ha,4.0
same,Herbicidal rating GLXMAW,[4]; rate 0.0313 kg/ha,4.0
same,Herbicidal rating GLXMAW,[4]; rate 0.0625 kg/ha,4.5
same,Preemergence herbicidal rating ECHCG,ECHCG (Barnyardgrass); rate 0.0156 kg/ha,0.0
same,Preemergence herbicidal rating ECHCG,ECHCG (Barnyardgrass); rate 0.0313 kg/ha,0.0
same,Preemergence herbicidal rating ECHCG,ECHCG (Barnyardgrass); rate 0.0625 kg/ha,0.0
same,Preemergence herbicidal rating ECHCG,ECHCG (Barnyardgrass); rate 0.1250 kg/ha,0.0
same,Preemergence herbicidal rating ECHCG,ECHCG (Barnyardgrass); rate 0.2500 kg/ha,2.0
same,Herbicidal rating AMBEL,"AMBEL (Ragweed, Common) [5]; rate 0.0156 kg/ha",7.0
same,Herbicidal rating AMBEL,"AMBEL (Ragweed, Common) [5]; rate 0.0313 kg/ha",7.0
same,Herbicidal rating AMBEL,"AMBEL (Ragweed, Common) [5]; rate 0.0625 kg/ha",9.0
same,Preemergence herbicidal rating AMBEL,"AMBEL (Ragweed, Common) [6]; rate 0.0156 kg/ha",0.0
same,Preemergence herbicidal rating AMBEL,"AMBEL (Ragweed, Common) [6]; rate 0.0313 kg/ha",0.0
same,Preemergence herbicidal rating AMBEL,"AMBEL (Ragweed, Common) [6]; rate 0.0625 kg/ha",0.0
same,Preemergence herbicidal rating AMBEL,"AMBEL (Ragweed, Common) [6]; rate 0.1250 kg/ha",0.0
same,Preemergence herbicidal rating AMBEL,"AMBEL (Ragweed, Common) [6]; rate 0.2500 kg/ha",4.0
"COc1cc(CN2C(=O)CSC2=Nc2cc(-n3c(=O)cc(C(F)(F)F)n(C)c3=O)c(F)cc2Cl)cc(OC)c1OC [Compound 140, 3-{4-Chloro-2-fluoro-5-{[3-(3,4,5-trimethoxybenzyl)-4-oxo-2-thiazolidinylidene]amino}phenyl}-1-methyl-6-(trifluoromethyl)-2,4(1H,3H)-pyrimidinedione]",Preemergence herbicidal rating GALAP,GALAP (Galium); rate 0.0625 kg/ha,0.0
same,Preemergence herbicidal rating GALAP,GALAP (Galium); rate 0.1250 kg/ha,0.0
same,Preemergence herbicidal rating GALAP,GALAP (Galium); rate 0.2500 kg/ha,0.0
same,Preemergence herbicidal rating GLXMAW,[1]; rate 0.0625 kg/ha,0.0
same,Preemergence herbicidal rating GLXMAW,[1]; rate 0.1250 kg/ha,0.0
same,Preemergence herbicidal rating GLXMAW,[1]; rate 0.2500 kg/ha,0.0
same,Preemergence herbicidal rating SETVI,"SETVI (Foxtail, Green); rate 0.0625 kg/ha",0.0
same,Preemergence herbicidal rating SETVI,"SETVI (Foxtail, Green); rate 0.1250 kg/ha",0.0
same,Preemergence herbicidal rating SETVI,"SETVI (Foxtail, Green); rate 0.2500 kg/ha",0.0
same,Preemergence herbicidal rating ABUTH,ABUTH (Velvetleaf); rate 0.0625 kg/ha,0.0
same,Preemergence herbicidal rating ABUTH,ABUTH (Velvetleaf); rate 0.1250 kg/ha,3.0
same,Preemergence herbicidal rating ABUTH,ABUTH (Velvetleaf); rate 0.2500 kg/ha,7.0
same,Herbicidal rating ZEAMX,"ZEAMX (Corn, Field); rate 0.0156 kg/ha",3.5
same,Herbicidal rating ZEAMX,"ZEAMX (Corn, Field); rate 0.0313 kg/ha",4.0
same,Herbicidal rating ZEAMX,"ZEAMX (Corn, Field); rate 0.0625 kg/ha",4.0
same,Preemergence herbicidal rating CASOB,CASOB (Sicklepod); rate 0.0625 kg/ha,0.0
same,Preemergence herbicidal rating CASOB,CASOB (Sicklepod); rate 0.1250 kg/ha,0.0
same,Preemergence herbicidal rating CASOB,CASOB (Sicklepod); rate 0.2500 kg/ha,0.0
same,"herbicidal effect rating, SAGPY",[2]; 0.0313 kg/ha,2.0
same,"herbicidal effect rating, SAGPY",[2]; 0.0625 kg/ha,3.0
same,"herbicidal effect rating, SAGPY",[2]; 0.1250 kg/ha,4.0
same,"herbicidal effect rating, SAGPY",[2]; 0.2500 kg/ha,4.0
same,"herbicidal effect rating, CYPSE",CYPSE (Flatsedge); 0.0313 kg/ha,0.0
same,"herbicidal effect rating, CYPSE",CYPSE (Flatsedge); 0.0625 kg/ha,0.0
same,"herbicidal effect rating, CYPSE",CYPSE (Flatsedge); 0.1250 kg/ha,0.0
same,"herbicidal effect rating, CYPSE",CYPSE (Flatsedge); 0.2500 kg/ha,0.0
same,Herbicidal rating IPOHE,[3]; rate 0.0156 kg/ha,9.0
same,Herbicidal rating IPOHE,[3]; rate 0.0313 kg/ha,9.0
same,Herbicidal rating IPOHE,[3]; rate 0.0625 kg/ha,9.0
same,Herbicidal rating GLXMAW,[4]; rate 0.0156 kg/ha,3.5
same,Herbicidal rating GLXMAW,[4]; rate 0.0313 kg/ha,4.5
same,Herbicidal rating GLXMAW,[4]; rate 0.0625 kg/ha,5.5
same,Preemergence herbicidal rating ECHCG,ECHCG (Barnyardgrass); rate 0.0625 kg/ha,0.0
same,Preemergence herbicidal rating ECHCG,ECHCG (Barnyardgrass); rate 0.1250 kg/ha,0.0
same,Preemergence herbicidal rating ECHCG,ECHCG (Barnyardgrass); rate 0.2500 kg/ha,0.0
same,Herbicidal rating AMBEL,"AMBEL (Ragweed, Common) [5]; rate 0.0156 kg/ha",2.0
same,Herbicidal rating AMBEL,"AMBEL (Ragweed, Common) [5]; rate 0.0313 kg/ha",2.0
same,Herbicidal rating AMBEL,"AMBEL (Ragweed, Common) [5]; rate 0.0625 kg/ha",4.0
same,Preemergence herbicidal rating AMBEL,"AMBEL (Ragweed, Common) [6]; rate 0.0625 kg/ha",0.0
same,Preemergence herbicidal rating AMBEL,"AMBEL (Ragweed, Common) [6]; rate 0.1250 kg/ha",0.0
same,Preemergence herbicidal rating AMBEL,"AMBEL (Ragweed, Common) [6]; rate 0.2500 kg/ha",0.0
